Experimental data reported in ChEMBL document CHEMBL1201862, “PubChem BioAssay data set” (2004).
Active and inactive are the calls of the source. Rule as the data show it, for most assays here: actives have a measured EC50 and inactives only a lower limit.

What was measured:
[1] = biological target: T1, Rac GTPase-activating protein 1 (Homo sapiens, UniProt Q9H0H5); assay: MgcRacGAP GTPase-activating activity inhibitors, confirmation, biochemical, ADP Hunter fluorescence, primary and confirmatory (AID 624330); assay type: functional
T1 sequence (Q9H0H5 whole entry): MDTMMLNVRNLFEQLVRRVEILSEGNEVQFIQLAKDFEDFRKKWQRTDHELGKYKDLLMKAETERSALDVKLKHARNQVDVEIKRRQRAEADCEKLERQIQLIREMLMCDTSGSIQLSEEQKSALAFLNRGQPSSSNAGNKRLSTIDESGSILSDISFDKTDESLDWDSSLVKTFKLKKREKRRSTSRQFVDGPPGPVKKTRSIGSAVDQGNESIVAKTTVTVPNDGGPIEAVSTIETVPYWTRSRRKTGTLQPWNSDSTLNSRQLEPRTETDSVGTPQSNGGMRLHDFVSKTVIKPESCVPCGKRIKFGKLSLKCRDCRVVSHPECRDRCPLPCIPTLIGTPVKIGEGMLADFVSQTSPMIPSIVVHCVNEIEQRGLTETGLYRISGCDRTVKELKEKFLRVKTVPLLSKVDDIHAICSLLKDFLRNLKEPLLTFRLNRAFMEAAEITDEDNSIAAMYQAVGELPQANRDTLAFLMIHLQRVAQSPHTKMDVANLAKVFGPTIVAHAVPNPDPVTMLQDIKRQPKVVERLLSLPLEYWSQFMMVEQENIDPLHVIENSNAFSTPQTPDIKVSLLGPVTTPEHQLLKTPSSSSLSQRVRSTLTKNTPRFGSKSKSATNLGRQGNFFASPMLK

[2] = biological target: Paired box protein Pax-8 (Homo sapiens, UniProt Q06710); assay: inhibitors of PAX8-driven TPO luciferase reporter, dose response, RMG-I cells, cherry-pick (AID 687027); assay type: functional, cell-based;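 also: luciferase reporter driven by Pax8 target thyroperoxidase promoter measured by SteadyGlo luminescence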
[3] = test system: Streptococcus sp. 'group A'; assay: growth inhibition of control SK(-) GAS strain, dose response, counter-screen for streptokinase expression inhibitor project, luminescence, kanamycin, BacTiterGlo, confirmation (AID 1900); assay type: functional, organism-based
[4] = test system: Streptococcus; assay: Group A Streptococcus viability loss, dose response, counter-screen for streptokinase expression inhibitor project, luminescence, BacTiterGlo (AID 1915); assay type: functional, organism-based;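 also: potency for reduction of bacterial viability or growth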
[5] = biological target: T2, Streptokinase A (Streptococcus pyogenes serotype M1, UniProt P10520); assay: S. pyogenes streptokinase expression inhibitors, potency, dose response, plasminogen activation absorbance, OD405 (AID 1914); assay type: functional, Streptococcus pyogenes M1 GAS;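 also: secreted streptokinase activity via plasminogen activation per viability signal from cell pellet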
T2 sequence (P10520 whole entry): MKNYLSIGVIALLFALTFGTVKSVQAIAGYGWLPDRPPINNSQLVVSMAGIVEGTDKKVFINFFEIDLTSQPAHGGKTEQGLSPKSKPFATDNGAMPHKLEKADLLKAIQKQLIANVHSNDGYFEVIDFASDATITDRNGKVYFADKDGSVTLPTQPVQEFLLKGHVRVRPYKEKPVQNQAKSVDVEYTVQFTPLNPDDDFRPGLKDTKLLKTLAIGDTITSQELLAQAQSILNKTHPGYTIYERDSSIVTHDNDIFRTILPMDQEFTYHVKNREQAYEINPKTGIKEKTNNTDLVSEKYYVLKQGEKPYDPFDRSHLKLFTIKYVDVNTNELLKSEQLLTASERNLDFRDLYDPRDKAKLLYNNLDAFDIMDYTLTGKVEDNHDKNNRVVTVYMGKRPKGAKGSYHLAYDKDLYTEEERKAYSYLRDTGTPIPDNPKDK

[6] = cytotoxicity toward NIH3T3 fibroblasts, dose response, counter-screen, cell-based, ATP luminescence, mouse fibroblasts (AID 2010); assay type: functional;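 also: cells exposed to compound for about 90 hours before reading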
[7] = inhibitors of intracellular T. cruzi replication, confirmation, NIH3T3 host cells, beta-gal luminescence (AID 2044); assay type: functional, cell-based;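 also: intracellular parasites grown in NIH/3T3 mouse fibroblasts as host cells; luminescent beta-galactosidase reporter signal from transgenic T. cruzi replicating inside host cells; inhibitors lower the luminescence signal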
[8] = Luminescence Cell-Based Dose Retest to Confirm Inhibitors of Cancer Stem Cells. [Related pubchem assays (depositor defined):AID2717, AID2721]; assay type: functional; settings: Homo sapiens
[9] = test system: INS1; assay: beta cell apoptosis inhibitors, cytokine rescue, dose response, luminescence, retest (AID 449756); assay type: functional, cell-based; settings: Rattus norvegicus;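 also: cell death triggered by IL-1 beta plus TNF-alpha plus IFN-gamma mixture; protective hits raise ATP signal compared with cytokine alone wells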

Chain of Paired box protein Pax-8 (Q06710 whole entry): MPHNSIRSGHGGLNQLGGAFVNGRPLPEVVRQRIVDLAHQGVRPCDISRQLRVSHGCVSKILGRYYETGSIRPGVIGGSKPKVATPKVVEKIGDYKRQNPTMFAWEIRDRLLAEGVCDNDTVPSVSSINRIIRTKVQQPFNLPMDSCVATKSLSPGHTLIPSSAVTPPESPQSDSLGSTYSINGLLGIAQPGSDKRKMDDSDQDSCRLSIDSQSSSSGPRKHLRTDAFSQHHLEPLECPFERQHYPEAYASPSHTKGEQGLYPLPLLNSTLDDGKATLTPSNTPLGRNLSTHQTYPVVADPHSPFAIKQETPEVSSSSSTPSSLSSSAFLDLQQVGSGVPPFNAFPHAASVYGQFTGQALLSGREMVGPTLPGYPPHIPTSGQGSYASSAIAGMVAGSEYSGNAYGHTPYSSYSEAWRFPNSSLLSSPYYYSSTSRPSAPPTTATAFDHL

Structure (SMILES): C/C(=N\Nc1nc2ccccc2[nH]1)c1ccc(Cl)s1
- IC50 [1]: 42 µM (active)

Structure (SMILES): C[C@@H]1CCCCO[C@H](CN(C)C(=O)NC2CCCCC2)[C@@H](C)CN([C@@H](C)CO)C(=O)c2cc(NC(=O)Nc3ccc(C(F)(F)F)cc3)ccc2O1
- AC50 [2]: 4.98 µM (active)

Structure (SMILES): Cc1cccc(OCC(=O)Nc2ccccc2N2CCCCC2)c1C
- EC50 [3]: 9.25 µM (active)
- EC50 [4]: 13.4 µM (active)
- EC50 [5]: 5.39 µM (active)

Structure (SMILES): COc1ccc(OC)c(C2C=C(C34CC5CC(CC(C5)C3)C4)N=C(S)N2)c1 (configuration not stated)
- EC50 [3]: 11.2 µM (active)
- EC50 [4]: > 150 µM (not active)
- EC50 [5]: 14.7 µM (active)
- EC50 [6]: > 30 µM (not active)
- EC50 [7]: 1.15 µM (active)

Structure (SMILES): CC12CCC(C(=O)NNC(=O)c3ccccc3)(OC1=O)C2(C)C (configuration not stated)
- EC50 [3]: > 150 µM (not active)
- EC50 [4]: > 150 µM (not active)
- EC50 [5]: > 150 µM (not active)

Structure (SMILES): CCOc1ccc(CN2CCN(Cc3cccc4c3OCO4)CC2CCO)cc1 (configuration not stated)
- EC50 [6]: > 60 µM (not active)
- EC50 [7]: 0.208 µM (active)

Structure (SMILES): NC(=O)c1cc([N+](=O)[O-])ccc1NCc1ccc(O)cc1
- AC50 [8]: 2.92 µM (active)

Structure (SMILES): Cc1ccc(C(c2nnnn2Cc2ccccc2)N2CC=C(c3ccc(F)cc3)CC2)cc1 (configuration not stated)
- EC50 [6]: 20.8 µM (active)
- EC50 [7]: 1.95 µM (active)

Structure (SMILES): C[C@@H]1CCCCO[C@@H](CN(C)Cc2ccc(Cl)c(Cl)c2)[C@H](C)CN([C@H](C)CO)C(=O)c2cc(NS(=O)(=O)c3ccccc3)ccc2O1
- AC50 [2]: 7.95 µM (active)

Structure (SMILES): CS(=O)(=O)c1ccc2nc(NC(=O)c3ccc(NS(=O)(=O)c4ccc(F)c(F)c4)cc3)sc2c1
- EC50 [3]: 0.318 µM (active)
- EC50 [4]: 5.61 µM (active)

Structure (SMILES): Cc1ccn2c(NCc3ccccc3)c(-c3cccc(SC4CCCCC4)c3)nc2c1
- AC50 [8]: 4.44 µM (active)

Structure (SMILES): COc1ccc(N2CCN(C(C)C(=O)N3CCCC3)CC2)cc1 (configuration not stated)
- IC50 [1]: 72.4 µM (active)

Structure (SMILES): CCOc1cccc2cc(C(=O)Oc3ccc(OC)cc3)c(=O)oc12
- IC50 [1]: 52.5 µM (active)

Structure (SMILES): C[C@@H]1CN([C@@H](C)CO)C(=O)c2cc(N(C)C)ccc2O[C@@H]1CN(C)Cc1ccc(Oc2ccccc2)cc1
- AC50 [2]: 19.1 µM (active)

Structure (SMILES): Cc1cnccc1CN(C)Cc1cn(C)nc1-c1ccc(Oc2ccccc2)cc1
- EC50 [6]: > 30 µM (not active)
- EC50 [7]: 1.76 µM (active)

Structure (SMILES): O=S(=O)(Nc1ccc(O)c(Sc2nc3ccccc3s2)c1)c1cccc2ccccc12
- AC50 [8]: 6.45 µM (active)
- EC50 [3]: 4.05 µM (active)
- EC50 [4]: 7.08 µM (active)
- EC50 [5]: > 150 µM (not active)

Structure (SMILES): COc1ccc(S(=O)(=O)N2CCCCN3[C@H](C2)[C@H](c2ccc(C#CC(C)C)cc2)[C@@H]3CO)cc1
- AC50 [2]: 9.44 µM (active)

Structure (SMILES): Cc1ccc(NC(S)=NN=C(S)Nc2cccc(C(F)(F)F)c2)cc1
- EC50 [3]: 5.24 µM (active)
- EC50 [4]: 110 µM (active)
- EC50 [5]: > 150 µM (not active)

Structure (SMILES): COc1cccc(CC2(CO)CCCN(Cc3sc(N4CCCC4)nc3Cl)C2)c1 (configuration not stated)
- EC50 [6]: > 30 µM (not active)
- EC50 [7]: 1.74 µM (active)

Structure (SMILES): Cc1c(C(=O)NN=C(S)NCc2ccc(Cl)cc2)oc2ccccc12
- EC50 [3]: 7.12 µM (active)
- EC50 [4]: > 150 µM (not active)

Structure (SMILES): Cc1ccc(CN2CCC(Oc3cccc(C(=O)N(C)CCN(C)C)c3)CC2)cc1C
- EC50 [6]: 26 µM (active)
- EC50 [7]: < 0.1 µM (active)

Structure (SMILES): Cc1ccc2nc(-c3ccc(NC(=O)CNC4CC4)cc3)sc2c1
- EC50 [3]: 14.4 µM (active)
- EC50 [4]: > 150 µM (not active)
- EC50 [5]: > 150 µM (not active)

Structure (SMILES): COc1ccc(S(=O)(=O)N[C@@H](C)C(=O)OCC(=O)Nc2cc3oc4ccccc4c3cc2OC)cc1
- EC50 [3]: 1.39 µM (active)
- EC50 [4]: 16.4 µM (active)
- EC50 [5]: > 150 µM (not active)

Structure (SMILES): O=C(NC(=S)Nc1cccc(Cl)c1N1CCCCC1)c1ccc2c(c1)OCCO2
- AC50 [8]: 0.707 µM (active)
- EC50 [3]: 80.4 µM (active)
- EC50 [4]: > 150 µM (not active)
- EC50 [5]: 48 µM (active)

Structure (SMILES): COc1ccccc1OCC#CCN1CCCC(C)C1 (configuration not stated)
- IC50 [1]: 182 µM (active)

Structure (SMILES): COC(=O)c1ccc2[nH]c3cccc(/C(=C/c4ccccc4)c4ccccc4)c3c2c1
- EC50 [3]: 0.602 µM (active)
- EC50 [4]: 3.93 µM (active)
- AC50 [9]: 11.2 µM (active)
- EC50 [5]: 1.43 µM (active)

Structure (SMILES): CC(C)(C)c1ccc(NC(=O)Cn2cnc3cc([N+](=O)[O-])ccc3c2=O)cc1
- EC50 [6]: 22.1 µM (active)
- EC50 [7]: 1 µM (active)

Structure (SMILES): O=C1CSC(c2cccnc2)N1CC1CC1 (configuration not stated)
- AC50 [9]: > 260 µM (inactive)

Structure (SMILES): C[C@@H]1CCCCO[C@H](CN(C)Cc2ccc(C(F)(F)F)cc2)[C@H](C)CN([C@H](C)CO)C(=O)c2cc(NS(=O)(=O)c3cccs3)ccc2O1
- AC50 [2]: 11.5 µM (active)

Structure (SMILES): CCOC(=O)c1c(-c2cccs2)csc1NC(=O)c1ccncc1
- EC50 [6]: > 30 µM (not active)
- EC50 [7]: 2.14 µM (active)

Structure (SMILES): O=C(COC(=O)Cn1cnc2ccccc2c1=O)Nc1ccc2c(c1)OCO2
- AC50 [9]: > 260 µM (inactive)

Structure (SMILES): CCOc1cc(/C=C2\SC(N)=NC2=O)ccc1O
- IC50 [1]: 47 µM (active)

Structure (SMILES): C/C(=N\Nc1cc(C(F)(F)F)ccc1Cl)c1ccccc1O
- AC50 [8]: 83.1 µM (active)

Structure (SMILES): C=CCc1cc(Cl)ccc1OCCn1ccnc1
- IC50 [1]: 139 µM (active)

Structure (SMILES): CC(C)Cc1nc2oc3c(Cl)ncnc3c2c2c1CCCC2
- AC50 [8]: 3.3 µM (active)

Structure (SMILES): COc1cc2c(cc1OC)C1(CCCC1)C(N)=C2C#N
- IC50 [1]: 38 µM (active)

Structure (SMILES): CCOC(=O)c1c(NC(=O)c2cccs2)sc2c1CCN(C(=O)OCC)C2
- EC50 [3]: 12 µM (active)

Structure (SMILES): Cc1c(C(=O)NNC(=S)NCc2ccc(Cl)cc2)oc2ccccc12
- EC50 [5]: 22.5 µM (active)

Structure (SMILES): O=C(NN=Cc1ccc(O)cc1)c1ccccc1NS(=O)(=O)c1cccs1
- IC50 [1]: 74.4 µM (active)

Structure (SMILES): O=C(COC(=O)c1ccccc1Br)Nc1nnc(-c2ccccc2)o1
- EC50 [3]: 0.834 µM (active)
- EC50 [4]: 19.2 µM (active)
- EC50 [5]: > 150 µM (not active)

Structure (SMILES): Cc1ccc(-n2cc(CN3CCC(CO)(Cc4cccc(C(F)(F)F)c4)CC3)cn2)cc1
- EC50 [6]: > 60 µM (not active)
- EC50 [7]: 0.896 µM (active)

Structure (SMILES): COc1ccc(/C=C/C(=O)NC(=S)Nc2ccccc2C(=O)NC2CCCCC2)cc1
- AC50 [9]: 13.9 µM (active)

Structure (SMILES): Cc1cccc(C)c1OCCCCN1CCNCC1
- IC50 [1]: 122 µM (active)

Structure (SMILES): C=CCc1cc(/C=N/c2ccc(N3CCOCC3)cc2)cc(OCC)c1O
- IC50 [1]: 13.1 µM (active)

Structure (SMILES): Cc1cc(C)cc(NC(=O)C(NCCN2CCOCC2)c2ccccc2)c1 (configuration not stated)
- IC50 [1]: 48.4 µM (active)

Structure (SMILES): CC(=O)c1c(Nc2ccc3c(c2)OCCO3)oc(C)cc1=O
- IC50 [1]: 54 µM (active)

Structure (SMILES): Cc1ccc(-c2nnn(CC(=O)N3c4ccccc4CCc4ccccc43)n2)cc1
- EC50 [6]: > 60 µM (not active)
- EC50 [7]: 3.26 µM (active)

Structure (SMILES): Cc1ccc(C)c(S(=O)(=O)N2CCN(CC(=O)NC(=O)NCc3ccccc3)CC2)c1
- EC50 [6]: > 60 µM (not active)
- EC50 [7]: 0.72 µM (active)

Structure (SMILES): c1ccc(-c2nc(N3CCN(c4ccccc4)CC3)nc(-n3ccnc3)n2)cc1
- EC50 [6]: > 60 µM (not active)
- EC50 [7]: 3.53 µM (active)

Structure (SMILES): Nc1nc(Nc2cccc(Cl)c2)nc(NCc2ccco2)c1[N+](=O)[O-]
- EC50 [3]: 7.28 µM (active)
- EC50 [4]: 16.4 µM (active)
- EC50 [5]: > 150 µM (not active)

Structure (SMILES): Nc1c(C(=O)c2ccccc2)sc(Nc2ccccc2)c1S(=O)(=O)c1ccccc1
- EC50 [6]: > 60 µM (not active)
- EC50 [7]: 1.47 µM (active)
